Tests used:
[1] = Metabolic stability of SH-11008 in mouse liver S9 fractions; assay type: in vitro ADME
Procedure: For studies using NADPH or PAPS as a cofactor, 4 μL of SH-11008 (40 μM) solution in 40 vol% CH3CN were mixed with 40 μL of 4 mg protein/mL HLS9 or MLS9 fractions diluted in 0.1 M potassium phosphate buffer (pH 7.4) and 100 μL of 0.1 M potassium phosphate buffer (pH 7.4). When using UDPGA as a cofactor, 32 μL of UGT Reaction Mix Solution B and 68 μL of de-ionized water were used instead of 100 μL of 0.1 M potassium phosphate buffer (pH 7.4). The mixture was warmed at 37 °C for 5 min. The reaction was then initiated by adding 16 μL of 10 mM cofactor dissolved in de-ionized water. The assay condition for UDPGA was used for metabolic stability studies conducted with a mixture of the three cofactors. The reaction was terminated at selected times by adding 160 μL of ice-cold CH3CN containing glipizide (500 ng/mL) as the IS. The resulting mixture was vortexed, sonicated, and centrifuged at 3000× g for 20 min. Aliquots of the supernatant were subjected to LC-MS/MS analysis described below in Section 2.6.2.
(§1) The LC-MS/MS system consisted of Agilent 1290 Infinity HPLC system and Agilent 6530 Accurate-Mass Quadrupole Time-of-Flight (Q-TOF) mass spectrometer equipped with dual AJS ESI ion source (Agilent Technologies Korea, Seoul, Korea). Chromatographic separation was performed on an Agilent Eclipse Plus C18 column (2.1 × 100 mm, 3.5 μm) with a Phenomenex Security Guard C18 guard column (4 × 20 mm) maintained at 40 °C. The mobile phase consisted of 0.1% formic acid in deionized water (A) and 0.1% formic acid in CH3CN (B): 0~2 min 5% B, 2~7 min to 95% B, and 7~10 min 95% B. Total run time including a 5 min equilibration time was 15 min. The flow rate was 0.4 mL/min. The injection volume was 5 µL. The mass spectrometer was operated in a positive Auto MS/MS scan mode with a full scan mass range of m/z 100–1000, fragmentor voltage 150 V, and CE 30 eV, selecting the two most intense precursor ions for collision-induced dissociation. Putative metabolites were identified using Agilent Mass Hunter Metabolite ID software (ver.B.04.00) followed by manual interpretation of the spectral data. Chromatograms and mass spectra were extracted using Agilent Mass Hunter Qualitative Analysis software (ver. B.05.00).
Pharmacokinetic parameters were calculated by noncompartmental analysis of plasma concentration versus time profiles using PKSolver. The scaling factors of mice and human, half-life (t1/2), intrinsic clearance (CLint), hepatic clearance (CLH), and hepatic extraction ratio (EH) were from the in vitro studies as described previously. […] The fraction of parent drug converted to the metabolite (fm) was calculated as follows:fm (%) = (AUC(m) × CL(m))/D × MWparent/MWmetabolite × 100,(1) where D is dose of the parent drug, AUC(m) is area under the curve for the metabolite after a dose of parent drug, CL(m) is CL of metabolite, and MW is molecular weight.

[2] = system: human microvascular retinal endothelial cell proliferation; parameters: method as in PMID 26035340; conditions: less potent than SH-11037; cited from earlier work
[3] = system: hydrolysis of SH-11037 in dog plasma; assay type: in vitro ADME; conditions: beagle, 2 h, 1 µM, pH 7.4
Procedure: (§2) Chemical inhibition assay was conducted in mouse, dog, and human plasma and mouse eye homogenate to identify the enzyme(s) involved in the hydrolysis of SH-11037. BW284c51 [16], DTNB [17], EPZ [18], and BNPP [19, 20] were used as selective inhibitors of acetylcholinesterase (AChE), paraoxonase 1 (PON1), butyrylcholinesterase (BchE), and carboxylesterase (CES), respectively. Mouse eyes (male ICR mouse, 8 weeks old) taken immediately after CO2 asphyxiation were homogenized by an electric tissue homogenizer (Tissue Master-125, Omni International, Kennesaw, GA, USA) in an equal amount of 0.1 M potassium phosphate buffer (pH 7.4) on ice. The resulting homogenate was then centrifuged at 3000× g for 20 min. The supernatant was stored at −80 °C until the experiment. DMSO stock solutions of the inhibitors (0.4, 4 and 40 mM) were mixed with plasma diluted 3-fold with 0.1 M phosphate buffer (pH 7.4) to a final volume of 160 μL and final inhibitor concentrations of 0.01, 0.1, and 1 mM. The supernatant of mouse eye homogenate was treated similarly with only BNPP as the inhibitor and a single inhibitor concentration of 1 mM. The resulting pre-incubation solutions were then incubated for 2 h at 37 °C in a shaking water bath. SH-11037 (40 μM) in 50 vol% aqueous CH3CN was mixed with the pre-incubation solutions to a final volume of 160 μL and a final concentration of 1 μM. The resulting solutions were then incubated at 37 °C in a shaking water bath. The incubations were terminated at selected times by adding 160 µL of ice-cold CH3CN containing glipizide (500 ng/mL) as the IS. The resulting mixture was vortexed, sonicated, and centrifuged at 3000× g for 20 min. Aliquots of the supernatant were subjected to LC-MS/MS analysis described below in Section 2.6.2.
as §1

[4] = system: hydrolysis of SH-11037 in mouse plasma; assay type: in vitro ADME; conditions: ICR, mouse, 1 min, 1 µM, pH 7.4
Procedure: as §2, §1

[5] = assay type: in vitro ADME; conditions: male, ICR, mouse, 1 min, 1 µM, pH 7.4
Procedure: as §2, §1

[6] = Stability of SH-11037 in 0.1 M phosphate buffer (pH 7.4); assay type: physicochemical
Procedure: SH-11037 (1 μM) was incubated in triplicate in 0.1 M phosphate buffer (pH 7.4) or in mouse, dog, and human plasma to investigate its stability. SH-11037 (40 μM) in 50 vol% aqueous CH3CN was mixed with 0.1 M phosphate buffer (pH 7.4) or plasma diluted 3-fold with 0.1 M phosphate buffer (pH 7.4) to a final volume of 160 μL and a final concentration of 1 μM. The resulting solutions were then incubated at 37 °C in a shaking water bath. The incubations were terminated at selected times by adding 160 µL of ice-cold CH3CN containing glipizide (500 ng/mL) as the internal standard (IS). The resulting mixture was vortexed, sonicated, and centrifuged at 3000× g for 20 min. Aliquots of the supernatant were subjected to LC-MS/MS analysis described below in Section 2.6.2.
The LC-MS/MS system consisted of Agilent 1290 Infinity HPLC system and Agilent 6530 Accurate-Mass Quadrupole Time-of-Flight (Q-TOF) mass spectrometer equipped with dual AJS ESI ion source (Agilent Technologies Korea, Seoul, Korea). Chromatographic separation was performed on an Agilent Eclipse Plus C18 column (2.1 × 100 mm, 3.5 μm) with a Phenomenex Security Guard C18 guard column (4 × 20 mm) maintained at 40 °C. The mobile phase consisted of 0.1% formic acid in deionized water (A) and 0.1% formic acid in CH3CN (B): 0~2 min 5% B, 2~7 min to 95% B, and 7~10 min 95% B. Total run time including a 5 min equilibration time was 15 min. […]

Structure (SMILES)	CLint scaled at 1 µM ([1]; CD-1, liver S9 fractions, pH 7.4, mouse, scaled from in vitro t1/2 in MLS9)	half-life at 1 µM ([1]; CD-1, mouse, liver S9 fractions, SH-11008 1 µM, MLS9 1 mg protein/mL, mixture of NADPH, UDPGA and PAPS (1 mM), 37 °C)	metabolic stability with cofactor added individually ([1]; MLS9, NADPH, UDPGA or PAPS 1 mM individually, 30 min)	EH ([1]; mouse, predicted hepatic extraction ratio from MLS9 data)	CLH ([1]; mouse, predicted with the well-stirred model from MLS9 data)	inhibitory activity on cell proliferation [2]	SH-11008 Formation (%), % of SH-11037 converted to SH-11008 [3]	SH-11008 Formation (%), % of SH-11037 converted to SH-11008 [4]	SH-11037 converted to SH-11008 [5]	SH-11037 remaining ([6]; 1 µM, 0.1 M phosphate buffer pH 7.4, 1 h incubation at 37 °C)	SH-11008 formation in buffer ([6]; SH-11037 1 µM, pH 7.4 buffer, 1 h at 37 °C)
COc1ccc(CC2COc3cc(OC)c(OC)c(OC)c3C2=O)cc1O (centres unmarked) [SH-11008]	1510 mL/min/kg	5.7 min	metabolized rapidly	0.94	84.9 mL/min/kg	good inhibitory activity	–	–	–	–	–
COc1ccc(CC2COc3cc(OC)c(OC)c(OC)c3C2=O)cc1OC(=O)[C@H](Cc1ccccc1)NC(=O)OC(C)(C)C (some centres unmarked) [SH-11037]	–	–	–	–	–	–	91.7 ± 1.2%	98.3 ± 2.8%	~ 90%	~100%	not detected

— PMC9697349, “Mouse Pharmacokinetics and In Vitro Metabolism of SH-11037 and SH-11008, Synthetic Homoisoflavonoids for Retinal Neovascularization” (Pharmaceutics, 2022)
